In patent US9855248B2, “Polymorph of itraconazole with improved pharmaceutical properties” (The Chinese University of Hong Kong, priority 2016, dated 2018):
“Also recorded” adds a separate entry of the source.

Key:
[1] = Powder dissolution study in 50% v/v aqueous ethanol; assay type: physicochemical; conditions: 25° C.; for solid form of undissolved solid at end of dissolution study (DSC and XRPD): 3-day dissolution study; for initial dissolution rate (in words): initial time period
Description: As an alternative means to compare the solubilities of the three ITZ polymorphs, the dissolution-time profiles of these crystal forms were determined in the same solvent system. According to the Noyes Whitney equation, the dissolution rate per unit surface area of a drug solid in contact with the dissolution medium is directly proportional to its solubility under sink conditions at a constant temperature. Thus the amount of drug dissolved initially over a defined time period can provide an indirect measure of the drug solubility. […] The concentrations of Form I and Form II in dissolution media increased gradually with time and plateaued off after ˜10 h. The maximum drug concentration attained was 2-3 fold higher for Form II than for Form I, consistent with the equilibrium solubility data.
All powder samples for dissolution testing were first sieved through an 80 mesh-screen (180 μm), and only particles with sizes smaller than 180 m were used. An accurately weighed amount (20±0.2 mg) of each ITZ polymorph or ITZ amorphous powder (made by rapid melt quenching) was dispersed in 25 ml 50% v/v aqueous ethanol with continuous stirring at 100 rpm in a round bottom flask, equilibrated inside a temperature-controlled incubator (Lovibond TC 135S, Tintometer GmbH, Dortmund, Germany) at 25° C. At appropriate time intervals, a 400 μl aliquot of each solution was withdrawn, filtered through 0.22 m membrane filters, and diluted with a suitable amount of 50% v/v aqueous ethanol prior to UPLC analysis. Each sample withdrawn was replaced by the same volume of fresh dissolution medium. The method of drug content detection was the same as described in the preceding section. At the end of the dissolution study, the undissolved solid left in the medium was checked by DSC or XRPD for possible polymorphic transition.

[2] = pH 7.4; cited from earlier work
[3] = Solid-state physical stability of Form III (annealing, ambient handling, grinding; XRPD); assay type: physicochemical
Description: X-ray powder diffraction (XRPD) data were collected using a powder X-ray diffractometer (Philips, Xpert PRO, The Netherlands) equipped with a Cu radiation source operating at 40 kV and […]. Sample was uniformly packed into a custom-made aluminum holder with a 2 mm depth and scanned from 20 of 3° to 400 at a rate of 4°/min with a step size of 0.017°.
FIGS. 2A, 2B and 2C show the XRPD patterns for the three different growth zones, respectively. […] The third zone, termed Form III, was characterized by signature peaks at approximately 11.9°, 16.7°, 17.4°, 18.7°, 19.1°, 20.0°, and 21.1°, indicative of a new crystal form, which has not been reported previously. […] The morphologies of Form I and II were similar and almost indistinguishable. Form III only existed in the bulk of recrystallized ITZ (FIG. 1C). All of the three forms grew as spherulites at temperatures below 110° C. (FIG. 1D). At temperatures above 110° C., Forms I and II grew as separate faceted crystals (FIGS. 1E and 1F), whereas Form III transformed to Form II. The latter was further substantiated by annealing Form III at 100° C. and 120° C.
Samples of ITZ polymorphs recrystallized from melt on glass coverslips were first examined by HSM. […] (FIGS. 3B and 3C). Further heating led to melting of Form II at 158° C. (FIG. 3D), and eventually melting of Form I at around 167° C. (FIG. 3E). To gain further insight into the thermal behaviors and melting properties of the different polymorphs, DSC analyses were conducted and the respective thermograms are presented in FIG. 4A. Form I melted at 165.1° C., which is in excellent agreement with the melting point of the commercial ITZ form (Form I). The melting point of Form II (155.7° C.) is the same as that described previously. The measured molar enthalpy of fusion, ΔH^f, of Form II was 60.6±1.7 kJ/mol, which is less than that (ΔH^f=68.6±1.5 kJ/mol) of Form I. The molar entropy of fusion, ΔS^f, of Form II (141±4 J/mol·K) was also less than that of Form I (ΔS^f=156±4 J/mol·K). […] At low scanning rate, e.g., 10° C./min, a small exothermic peak appeared at ˜120° C. (which possibly reflects the transition of Form III to Form II), followed by an endotherm at ˜156° C., corresponding to the melting of Form II. At higher heating rates, e.g., 40° C./min, the melting endotherm of Form III started to emerge at 119.4° C., followed by a relatively small endotherm at a higher temperature, which can be attributed to the melting of recrystallized Form II from the Form III melt. Due to the co-existence of Form III and/or its melt, this Form II was seen to melt at a lower temperature than its phase pure counterpart (m.p. ˜156° C.). […]

[4] = assay type: physicochemical
Description: Solubilities of different polymorphs were determined by adding excess drug to 10 ml of 50% v/v aqueous ethanol in glass vials, followed by equilibration with occasional shaking at different temperatures (4° C., 10° C., 20° C., 25° C., 34° C., 40° C.) in a temperature-controlled incubator (Lovibond TC 135S, Tintometer GmbH, Dortmund, Germany) for 3 days (i.e., until equilibrium was reached). The solution was then filtered and the drug content was analyzed by UPLC (Agilent 1200 Infinity LC systems) using a UHPLC ZORBAX Eclipse Plus C18 column (2.1 mm×50 mm; 1.8 m). The mobile phase consisted of acetonitrile and 0.1% formic acid (60:40 v/v) eluted at 1 ml/min. Quantification was based on the peak area measurement by UV absorption at λ=260 nm. After the study, the residual solid in each glass vial was analyzed by DSC and XRPD to check for possible polymorphic transitions during the study. Solubility data were expressed in mole fraction as follows:
[formula] where n1 is the number of moles of solvent, and n2 is the number of moles of solute.
In addition to the enthalpy of fusion, equilibrium solubility and the related enthalpy of solution in a given solvent system can offer useful information on the bonding strength within the crystal lattice of a particular polymorph. […] According to the van't Hoff equation, the plot should be linear if the enthalpy of solution term in the equation is truly temperature-independent. […] The extrapolation of two linear plots yielded a transition temperature, Tr, of […] at the intersection point for the two polymorphs. The enthalpy, ΔHII→I, and entropy, ΔSII→I, of polymorphic transition from Form II to Form I were estimated to be −4470.8 J/mol and −5.7 J/mol·K from the slope of the log solubility ratio plot in FIG. 6B and from the relation, ΔSII→I=ΔHII→I/Tr (i.e., when ΔGII→I=0), respectively. The free energies of polymorphic transition, ΔGII→I, from Form II to Form I at 25° C. and 37° C., as defined by the equation, ΔGII→I=ΔHII→I−TΔSII→I, were calculated to be −2771 J/mol and −2703 J/mol, respectively. The solubility of Form II was about 2-3 fold higher than that of Form I in the temperature range studied.

For CCC(C)n1ncn(-c2ccc(N3CCN(c4ccc(OC[C@H]5CO[C@](Cn6cncn6)(c6ccc(Cl)cc6Cl)O5)cc4)CC3)cc2)c1=O (mixture of isomers) [amorphous form, itraconazole], the “solid form of undissolved solid at end of dissolution study (DSC and XRPD)” value (“solid form of undissolved solid” for short) [1] was “converted to Form I”, the “solid form of undissolved solid” value ([1]; listed as amorphous material) was “converted to Form I” and the “dissolved drug concentration level after initial drop” value ([1]; after 50 h) was “equivalent to the equilibrium solubility of Form I”. For the same molecule, the “initial dissolution rate (in words)” value [1] was “increased most rapidly”.
For CCC(C)n1ncn(-c2ccc(N3CCN(c4ccc(OC[C@H]5CO[C@](Cn6cncn6)(c6ccc(Cl)cc6Cl)O5)cc4)CC3)cc2)c1=O (relative stereo) [ITZ, (2R,4S)-rel-1-(Butan-2-yl)-4-{4-[4-(4-{[(2R,4S)-2-(2,4-dichlorophenyl)-2-(1H-1,2,4-triazol-1-ylmethyl)-1,3-dioxolan-4-yl]methoxy}phenyl)piperazin-1-yl]phenyl}-4,5-dihydro-1H-1,2,4-triazol-5-one], the water-solubility [2] is given as 1 ng/mL.
For CCC(C)n1ncn(-c2ccc(N3CCN(c4ccc(OC[C@H]5CO[C@](Cn6cncn6)(c6ccc(Cl)cc6Cl)O5)cc4)CC3)cc2)c1=O (mixture of isomers) [Form III, itraconazole], the “maximum/peak drug concentration relative to that of Form I” value [1] was “about 7 fold”, the “time of peak drug concentration” value [1] was roughly 15 h and the “solid form of undissolved solid” value [1] was “converted to Form I”. For the same molecule, the “initial dissolution rate (in words)” value [1] was “dissolved much more rapidly than the other two forms”, the “phase stability on annealing (XRPD)” value ([3]; 100° C. for 10 hours) was “no such phase transition” and the “phase stability on annealing (XRPD)” value ([3]; 120° C. for 10 hours) was “conversion to Form II”. The “crystal structure after grinding (XRPD)” value ([3]; grinding with pestle and mortar) was “remained unchanged in crystal structure” and the “physical stability at ambient conditions” value ([3]; scraping from glass coverslip for XRPD analysis) was “stable at ambient conditions”.
In the case of CCC(C)n1ncn(-c2ccc(N3CCN(c4ccc(OC[C@H]5CO[C@](Cn6cncn6)(c6ccc(Cl)cc6Cl)O5)cc4)CC3)cc2)c1=O (mixture of isomers) [Form I, itraconazole], the “molar enthalpy of solution” value [4] is reported as 55.8 (±2.8) kJ/mol, the “time at which concentration in dissolution medium plateaued off” value [1] is reported as roughly 10 h and the “solid form of undissolved solid” value [1] is reported as “maintained their original crystal structures; also recorded: remained unchanged”.
In the case of CCC(C)n1ncn(-c2ccc(N3CCN(c4ccc(OC[C@H]5CO[C@](Cn6cncn6)(c6ccc(Cl)cc6Cl)O5)cc4)CC3)cc2)c1=O (mixture of isomers) [Form II, itraconazole], the “enthalpy, ΔHII→I, of polymorphic transition from Form II to Form I” value [4] is reported as -1.0685 kcal/mol, the “entropy, ΔSII→I, of polymorphic transition from Form II to Form I” value [4] is reported as −5.7 J/mol·K and the “molar enthalpy of solution” value [4] is reported as 51.3 (±2.9) kJ/mol. The “transition temperature, Tr, of Form I and Form II” value [4] was 497.8 °C, the “solubility relative to that of Form I” value ([4]; 3 days) was 2-3 fold and the “maximum/peak drug concentration relative to that of Form I” value [1] was 2-3 fold. The “time at which concentration in dissolution medium plateaued off” value [1] was roughly 10 h and the “solid form of undissolved solid” value [1] was “maintained their original crystal structures; also recorded: remained unchanged”.
